Values quoted from earlier work, collected in patent US7596836B2 (priority 2007, dated 2009).

Assays:
[1] = in vivo
[2] = tested on: HIV; details: clinical trials; response directly related to the dosage given
[3] = in vivo; remark: listed apart in the source
[4] = 250 mg chloroquine phosphate twice daily must be monitored closely
[5] = reports in Japan, including suicide attempts
[6] = tested on: Avian Influenza H5N1; details: patients worldwide, current strain of Avian Influenza H5N1
[7] = tested on: influenza; details: dosage of a compound containing 1% to 3% thymol

In the case of `CC1CCC(C(C)C)C(O)C1` (stereo not shown) [Menthol], the reduction of coughing [1] is given as 50%.

For `CCN(CC)CCCC(C)Nc1ccnc2cc(Cl)ccc12` (stereo not shown) [chloroquine], the “efficacy against HIV” value [2] is listed as “effective against HIV”, the serum half-life [3] is listed as 96 h and the “toxicity of oral chloroquine” value [4] is listed as “ocular complications and renal toxicity”.

For `CCOC(=O)C1=C[C@@H](OC(CC)CC)[C@H](NC(C)=O)[C@@H](N)C1` [oseltamivir], the reported side effects [5] is given as “serious neuropsychiatric symptoms” and the “mortality of oseltamivir treated patients” value [6] is given as ~50%.

For `Cc1ccc(C(C)C)c(O)c1` [thymol, Thymol], the effect against influenza [7] is given as “effective at fighting influenza”.
